Results as given in patent US12357603B2, “Acyl sulfonamides for treating cancer” (Bayer Aktiengesellschaft, priority 2019, dated 2025).
Like-named read-outs stand apart in the source and are kept apart here.

Experiments:
ZR-75-1 cells = assay: Proliferation assay ZR-75-1 (Alamar Blue, 144 h); format: cell-based; conditions: arithmetic mean, read-out: ZR75-1 proliferation assay, EC50 [M] (arithmetic mean)
Procedure, shortened: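 Alamar Blue fluorescence (590 nm, 2 h reagent step) measured viability after 144 h compound exposure at 37 °C, 5% CO2. Compounds spanned 2.0×10E-5 to 2.0×10E-9 M in 9 dilutions at 0.2% DMSO, in triplicate, added 24 h after plating 3000 cells/well in RPMI 1640 plus 2.5% FBS.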

[1] = target: Recombinant human GST-tagged Kat6b protein (431-end); assay: Kat6b activity assay (TR-FRET, acetylation of biotinylated Histone-H4-derived peptide); format: biochemical; conditions: 30 mins at 22° C., read-out: KAT6B activity assay IC50 [mol/l] (arithmetic mean)
Description: Kat6b inhibitory activities of the compounds described in the present invention were quantified using a Fluorescence Resonance Energy Transfer (TR-FRET) assay which measures acetylation of a synthetic, biotinylated Histone-H4-derived peptide by the enzyme.
In this case 50 nl DMSO were used instead of compounds. […] IC50 values were determined by regression analysis based on a 4 parameter equation (minimum, maximum, ICM, Hill; Y=Max+(Min−Max)/(1+(X/ICso) Hill) using the Screener Software (Genedata).

MDA-MB-436 cells = assay: Proliferation assay MDA-MB-436, negative control cell line (Alamar Blue, 144 h); format: cell-based; conditions: arithmetic mean
Procedure, shortened: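 Viability read as Alamar Blue fluorescence (590 nm, 2 h) after 144 h compound exposure at 37 °C, 5% CO2. Cells seeded at 3000 per well in 2.5% FBS DMEM/Ham's F12, dosed a day later over 2.0×10E-9–2.0×10E-5 M in 9 steps with 0.2% DMSO, in triplicate.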

[2] = target: Recombinant human His-tagged Kat6a protein (amino acids 194-810) (Homo sapiens (Human), UniProt Q92794); assay: Kat6a activity assay (TR-FRET, acetylation of biotinylated Histone-H4-derived peptide); format: biochemical; conditions: 60 mins at 22° C., read-out: KAT6A-DPF/HAT domain IC50 [mol/l] (arithmetic mean)
Procedure, shortened: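 TR-FRET read-out of H4 K8 acetylation, using anti-acetyl-K8 antibody and streptavidin acceptor, after anacardic acid stop; IC50 from four-parameter regression normalized to DMSO. Reaction: recombinant human Kat6a aa 194-810 (insect-cell derived), 220 nM H4 1-24 peptide, 600 nM acetyl-CoA, pH 8, 22 °C, 60 min, compounds 0.01-20 μM.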

[3] = test system: ESR1 transcription (luciferase signal in MVLN cells); assay: Repression of ESR1 transcription, luciferase reporter in MVLN cells; format: cell-based; conditions: inhibition of luciferase signal in MVLN cells, arithmetic mean
Procedure, shortened: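 Luminescence from an ER-driven Vitellogenin A2 element–luciferase reporter was measured after 24 h of treatment of MVLN cells, in duplicate wells. Alamar Blue (2 h, 530/590 nm) served as a cell-density control.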

[4] = Homo sapiens, MDA-MB-436, 144 h

Sequence of Recombinant human His-tagged Kat6a protein (amino acids 194-810) (Q92794 194-810): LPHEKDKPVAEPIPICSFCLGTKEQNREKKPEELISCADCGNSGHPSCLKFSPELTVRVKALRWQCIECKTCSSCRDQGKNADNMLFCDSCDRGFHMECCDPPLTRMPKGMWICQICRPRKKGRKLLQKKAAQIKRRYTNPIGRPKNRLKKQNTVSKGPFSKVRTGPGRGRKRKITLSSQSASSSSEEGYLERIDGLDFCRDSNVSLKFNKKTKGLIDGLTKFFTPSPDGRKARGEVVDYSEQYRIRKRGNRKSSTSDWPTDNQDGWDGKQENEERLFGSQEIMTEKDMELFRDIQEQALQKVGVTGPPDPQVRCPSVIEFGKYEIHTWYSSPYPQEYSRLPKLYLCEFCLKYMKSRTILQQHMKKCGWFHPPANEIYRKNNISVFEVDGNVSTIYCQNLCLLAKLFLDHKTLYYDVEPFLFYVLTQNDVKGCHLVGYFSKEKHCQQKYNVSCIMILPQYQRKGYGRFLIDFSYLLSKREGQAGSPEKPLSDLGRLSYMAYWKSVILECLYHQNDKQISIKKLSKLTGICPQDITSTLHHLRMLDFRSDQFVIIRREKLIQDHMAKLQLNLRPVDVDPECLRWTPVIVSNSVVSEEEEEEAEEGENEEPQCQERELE

Compound | EC50 (ZR-75-1 cells; Homo sapiens, ZR-75-1, 144 h) [M] | IC50 [1] [µM] | EC50 (MDA-MB-436 cells; [4]) [µM] | IC50 [2] [µM] | IC50 ([3]; Homo sapiens, MVLN) [µM] | EC50 (ZR-75-1 cells) [M] | EC50 (MDA-MB-436 cells) [µM] | IC50 [3] [µM]
CCN(C)c1ccc2cc(C(=O)NS(=O)(=O)c3ccccc3Cl)oc2c1 [Example 4, N-(2-Chlorophenyl)sulfonyl-6-[ethyl(methyl)amino]benzofuran-2-carboxamide] | 3.25e-06 | 1.41 | > 20 | 2.7 | 2.57 |  |  | 
CCOc1ccccc1S(=O)(=O)NC(=O)c1cc2ccc(N(C)CC)cc2o1 [Example 5, N-(2-Ethoxyphenyl)sulfonyl-6-[ethyl(methyl)amino]benzofuran-2-carboxamide] | 8.76e-07 | 0.495 | > 20 | 1.1 | 0.52 |  |  | 
CCOc1ccccc1S(=O)(=O)NC(=O)c1cc2ccc(N(C)c3ccccc3)cc2o1 [Example 6, N-(2-Ethoxyphenyl)sulfonyl-6-(N-methylanilino)benzofuran-2-carboxamide] | > 2e-05 | 4.28 | > 20 | 1.83 | > 20 |  |  | 
CN(c1ccccc1)c1ccc2cc(C(=O)NS(=O)(=O)c3ccccc3)oc2c1 [Example 7] | > 2e-05 | > 20 | > 20 | 9.6 | > 20 |  |  | 
CN(c1ccccc1)c1ccc2cc(C(=O)NS(=O)(=O)c3ccccc3Cl)oc2c1 [Example 8, N-(2-Chlorophenyl)sulfonyl-6-(N-methylanilino)benzofuran-2-carboxamide] | > 2e-05 | 4.4 | > 20 | 5.03 | > 20 |  |  | 
CNc1ccc2cc(C(=O)NS(=O)(=O)c3ccccc3-c3ccccc3)oc2c1 [Example 11, 6-(Methylamino)-N-(2-phenylphenyl)sulfonyl-benzofuran-2-carboxamide] | 2.84e-07 | 0.205 | > 20 | 0.123 | 1.93 |  |  | 
CCOc1ccccc1S(=O)(=O)NC(=O)c1cc2c(F)cc(N(C)C)cc2o1 [Example 13, 6-(Dimethylamino)-N-(2-ethoxybenzene-1-sulfonyl)-4-fluoro-1-benzofuran-2-carboxamide] | 2.28e-08 | 0.0116 | > 20 | 0.0125 | 0.0167 |  |  | 
CN(C)c1ccc2cc(C(=O)NS(=O)(=O)c3ccccc3-c3cccc(Cl)c3)oc2c1 [Example 16, N-(3′-Chloro[1,1′-biphenyl]-2-sulfonyl)-6-(dimethylamino)-1-benzofuran-2-carboxamide] | 1.55e-07 | 0.0505 | > 20 | 0.0663 | 0.126 |  |  | 
Cc1ccccc1-c1ccccc1S(=O)(=O)NC(=O)c1cc2ccc(N(C)C)cc2o1 [Example 17, 6-(Dimethylamino)-N-(2′-methyl[1,1′-biphenyl]-2-sulfonyl)-1-benzofuran-2-carboxamide] | 3.87e-08 | 0.0645 | > 20 | 0.0724 | 0.148 |  |  | 
CN(C)c1ccc2cc(C(=O)N[S@SP1](=O)(=O)c3cccc4ccccc34)oc2c1 [Example 20, 6-(Dimethylamino)-N-(naphthalene-1-sulfonyl)-1-benzofuran-2-carboxamide] | 2.5e-07 | 0.0884 | > 20 | 0.104 | 0.343 |  |  | 
Cc1ccc2cccc(S(=O)(=O)NC(=O)c3cc4ccc(N(C)C)cc4o3)c2n1 [Example 21, 6-(Dimethylamino)-N-(2-methylquinoline-8-sulfonyl)-1-benzofuran-2-carboxamide] |  | 0.0267 |  | 0.0234 |  | 4.21e-08 | 15.3 | 0.0485
CN(C)c1ccc2cc(C(=O)NS(=O)(=O)c3ccccc3Cl)oc2c1 [Example 22, N-(2-Chlorobenzene-1-sulfonyl)-6-(dimethylamino)-1-benzofuran-2-carboxamide] | 2.02e-07 | 0.2 | > 20 | 0.219 | 0.214 |  |  | 
Cc1ccc(S(=O)(=O)NC(=O)c2cc3ccc(N(C)C)cc3o2)c(-c2ccccc2)c1 [Example 24, 6-(Dimethylamino)-N-(5-methyl[1,1′-biphenyl]-2-sulfonyl)-1-benzofuran-2-carboxamide] | 1.33e-07 | 0.049 | > 20 | 0.031 | 0.181 |  |  | 
CCOc1cccc(-c2cccc(Cl)c2)c1S(=O)(=O)NC(=O)c1cc2ccc(N(C)C)cc2o1 [Example 25, N-(3′-Chloro-3-ethoxy[1,1′-biphenyl]-2-sulfonyl)-6-(dimethylamino)-1-benzofuran-2-carboxamide] | 1.5e-07 | 0.0506 | 18 | 0.0311 | 0.139 |  |  | 
Cc1ccc(S(=O)(=O)NC(=O)c2cc3ccc(N(C)C)cc3o2)cc1 [Example 26, 6-(Dimethylamino)-N-(4-methylbenzene-1-sulfonyl)-1-benzofuran-2-carboxamide] | 3.89e-07 | 0.778 | > 20 | 0.406 | 0.899 |  |  | 
CN(C)c1ccc2cc(C(=O)NS(=O)(=O)C3CCOCC3)oc2c1 [Example 28, 6-(Dimethylamino)-N-(oxane-4-sulfonyl)-1-benzofuran-2-carboxamide] | 4.73e-06 | 2.68 | > 20 | 5.44 | > 20 |  |  | 
CN(C)c1ccc2cc(C(=O)NS(=O)(=O)c3cc(C#N)ccn3)oc2c1 [Example 29, N-(4-Cyanopyridine-2-sulfonyl)-6-(dimethylamino)-1-benzofuran-2-carboxamide] | 1.88e-05 | 5.92 | > 20 | 6.24 | > 20 |  |  | 
Cc1cc(N(C)C)cc2oc(C(=O)NS(=O)(=O)c3ccccc3-c3ccccc3)cc12 [Example 35, N-([1,1′-biphenyl]-2-sulfonyl)-6-(dimethylamino)-4-methyl-1-benzofuran-2-carboxamide] | 6.03e-06 | 0.654 | > 20 | 0.452 | 14.9 |  |  | 
CN(C)c1ccc2cc(C(=O)NS(=O)(=O)c3ccccc3C(=O)O)oc2c1 [Example 36, 2-{[6-(Dimethylamino)-1-benzofuran-2-carbonyl]sulfamoyl}benzoic acid] | 1.04e-05 | 0.169 | > 20 | 0.227 | 4.03 |  |  | 
CCN(CC)c1ccc2cc(C(=O)NS(=O)(=O)c3ccccc3-c3ccccc3)oc2c1 [Example 38, N-([1,1′-Biphenyl]-2-sulfonyl)-6-(diethylamino)-1-benzofuran-2-carboxamide] | 1.45e-05 | 1.89 | > 20 | 0.975 | 4.99 |  |  | 
CN(CC1CC1)c1ccc2cc(C(=O)NS(=O)(=O)c3ccccc3-c3ccccc3)oc2c1 [Example 40, N-([1,1′-Biphenyl]-2-sulfonyl)-6-[(cyclopropylmethyl)(methyl)amino]-1-benzofuran-2-carboxamide] | > 2e-05 | 1.42 | > 20 | 1.15 | > 20 |  |  | 
CCCCN(CCCC)c1ccc2cc(C(=O)NS(=O)(=O)c3ccccc3-c3ccccc3)oc2c1 [Example 41, N-([1,1′-Biphenyl]-2-sulfonyl)-6-(dibutylamino)-1-benzofuran-2-carboxamide] | 8.3e-06 | 2.56 | 18.5 | 2.31 | 14.9 |  |  | 
Nc1ccc2cc(C(=O)NS(=O)(=O)c3ccccc3-c3ccccc3)oc2c1 [Example 42, 6-Amino-N-([1,1′-biphenyl]-2-sulfonyl)-1-benzofuran-2-carboxamide] | > 2e-05 | 3.59 | > 20 | 1.07 | > 20 |  |  | 
CC(=O)Nc1ccc2cc(C(=O)NS(=O)(=O)c3ccccc3-c3ccccc3)oc2c1 [Example 43, 6-Acetamido-N-([1,1′-biphenyl]-2-sulfonyl)-1-benzofuran-2-carboxamide] | > 2e-05 | 10.3 | > 20 | 5.14 | > 20 |  |  | 
